From US9187413B2, “Peripherally restricted FAAH inhibitors” (The Regents of the University of California, priority 2010, dated 2015)
Where two headings read alike, the source gives them in different places.

Assays:
[1] = Drug transport assay through polarized TC7 monolayers; format: in vitro ADME; conditions: human
Protocol: (§1) Drug transport assays. Assays were performed at Cerep Inc. (Redmond, Wash.), following protocols outlined in the company's web-site (http://www.cerep.fr).
(§2) Drug transport assays Transport assays were conducted at Cerep Inc. (Redmond, Wash.). Cellular permeability was determined in the apical (A) to basal (B) and the B to A direction in the presence of 10 μM compound in Hanks' buffered salt solution containing 1% dimethylsulfoxide (DMSO). Efflux ratios were calculated as the ratio of B-A to A-B permeabilities.

Pgp = assay: as above; format: in vitro ADME; conditions: human, Caco-2, with verapamil (100 μM); TC7 monolayers, Pgp inhibitor verapamil (100 μM); read-out: B-A permeability with verapamil
Protocol: as §1, §2

[2] = tested on: formalin-induced nociception; assay: Formalin-induced pain behavior; format: in vivo; conditions: rats, 1 mg-kg^-1, i.p.
Protocol: (§3) Behavioral tests. We measured nocifensive responses elicited by i.p. injection of acetic acid in male Swiss and C57B1/6 (wild-type or FAAH-deficient) mice^40, intraplantar injection of carrageenan in male Swiss mice^20, intraplantar injection of formalin in male Sprague-Dawley rats^41, and sciatic nerve ligation in male Swiss mice^39.
Behavioral tests Acetic acid-induced writhing was measured in Swiss mice or C57B1/6 mice (wild-type and FAAH-deficient), as described^40 with minor modifications. Briefly, the mice were acclimated to the experimental room for 2 h. Each animal was injected with acetic acid (150 μL, 0.6% in saline) and placed into a glass cylinder. Abdominal stretches (extension of body and hind limbs) were counted for 20 min, starting 5 min after acetic acid injection. […] Behavior was scored by an observer blinded to the treatment conditions. Formalin-induced nociception was assessed in Sprague-Dawley rats, as described^41. […] Immediately after formalin injection, the rats were returned to the observation container and nocifensive behavior was recorded for 60 min with a video camera. Recordings were analyzed by observers blinded to treatment conditions. Nocifensive behavior was measured continuously for 60 min^41. […] Each 5-min bin was analyzed for time spent (1) lifting and (2) licking or biting the injected paw. […]

FAAH [3] = target: T1, FAAH (Mus musculus (Mouse), UniProt O08914); assay: FAAH inhibition ex vivo after systemic administration in mice; conditions: mouse, ip
Protocol: Drug preparation for in vivo experiments Drugs were dissolved in polyethylene glycol 400/Tween-80/saline (1/1/18; by volume) and administered by i.p. (5-10 mL-kg^−1) or s.c. injection (10 mL-kg^−1).

[4] = tested on: acetic acid-induced writhing; assay: Acetic acid-induced writhing; format: in vivo, mice
Protocol: as §3
Behavioral tests Acetic acid-induced writhing was measured in Swiss mice or C57B1/6 mice (wild-type and FAAH-deficient), as described^40 with minor modifications. Briefly, the mice were acclimated to the experimental room for 2 h. Each animal was injected with acetic acid (150 μL, 0.6% in saline) and placed into a glass cylinder. Abdominal stretches (extension of body and hind limbs) were counted for 20 min, starting 5 min after acetic acid injection. […] Behavior was scored by an observer blinded to the treatment conditions. Formalin-induced nociception was assessed in Sprague-Dawley rats, as described^41. The rats were singly housed and kept in a shared holding room under a 12:12 h light:dark cycle. […] Immediately after formalin injection, the rats were returned to the observation container and nocifensive behavior was recorded for 60 min with a video camera. Recordings were analyzed by observers blinded to treatment conditions. Nocifensive behavior was measured continuously for 60 min^41. […] Each 5-min bin was analyzed for time spent (1) lifting and (2) licking or biting the injected paw. Nocifensive behavior was analyzed using the composite pain score weighted scores technique (CPS-WST1,2) calculated for the entire time of observation (0-60 min) and, separately, for the first (0-10 min) and second phase (10-60 min) of the behavioral response^46. The area under the curve (AUC) corresponding to CPS-WST1,2 was calculated using the trapezoidal rule. […] Paw volumes were measured using a plethysmometer (Ugo Basile, Milan, Italy). […] Mechanical hyperalgesia was assessed by measuring the latency(s) to withdraw the paw from a constant mechanical pressure exerted onto its dorsal surface. […]

FAAH [5] = target: T1, FAAH; assay: Tissue levels of anandamide, PEA and 2-AG by LC/MS; format: in vivo; conditions: mice, 1 mg-kg^-1, i.p.
Protocol: Tissue analyses. We performed tissue extractions and liquid chromatography/mass spectrometry analyses of endocannabinoids as described^38.
Tissue extractions Mice were sacrificed with isoflurane and tissues were collected and immediately frozen in liquid nitrogen. Frozen tissues were weighed and homogenized in methanol (1 mL) containing [^2H4]-anandamide, [^2H4]-PEA, [^2H8]-2-AG, and N-cyclohexyl biphenyl-3-ylacetamide as internal standards. Analytes were extracted with chloroform (2 vol) and washed with water (1 vol). Organic phases were collected and dried under nitrogen. […] For other analyses the organic extract was fractionated by open-bed silica gel column chromatography, as described^43. Briefly, the extract was dissolved in chloroform and loaded onto small glass columns packed with Silica Gel G (60˜A 230-400 Mesh ASTM; Whatman, Clifton, N.J.). Anandamide, PEA and 2-AG were eluted with chloroform/methanol (9:1, vol/vol).
Mobile phase A consisted of methanol containing 0.25% acetic acid, 5 mM ammonium acetate; mobile phase B consisted of water containing 0.25% acetic acid, 5 mM ammonium acetate. […] Column temperature was kept at 40° C. […] Limit of quantification was 0.4 pmol.

[6] = tested on: blood-brain barrier transporters; assay: Co-administration of inhibitors of blood-brain barrier transporters with URB937; format: in vivo; conditions: rats, URB937 25 mg-kg^-1 i.p.
[7] = Drug distribution coefficient n-octanol/buffer pH 7.4; format: physicochemical; conditions: n-octanol / aqueous buffer pH 7.4, 25±1° C., mean±sem, n=3; read-out: distribution coefficient, Log Doct,pH7.4
Protocol: Drug distribution coefficients. We determined Log D7.4,oct values at room temperature (25±1° C.) partitioning the solutes between n-octanol and an aqueous solution buffered at pH 7.4^36.

T1 sequence (O08914 whole entry): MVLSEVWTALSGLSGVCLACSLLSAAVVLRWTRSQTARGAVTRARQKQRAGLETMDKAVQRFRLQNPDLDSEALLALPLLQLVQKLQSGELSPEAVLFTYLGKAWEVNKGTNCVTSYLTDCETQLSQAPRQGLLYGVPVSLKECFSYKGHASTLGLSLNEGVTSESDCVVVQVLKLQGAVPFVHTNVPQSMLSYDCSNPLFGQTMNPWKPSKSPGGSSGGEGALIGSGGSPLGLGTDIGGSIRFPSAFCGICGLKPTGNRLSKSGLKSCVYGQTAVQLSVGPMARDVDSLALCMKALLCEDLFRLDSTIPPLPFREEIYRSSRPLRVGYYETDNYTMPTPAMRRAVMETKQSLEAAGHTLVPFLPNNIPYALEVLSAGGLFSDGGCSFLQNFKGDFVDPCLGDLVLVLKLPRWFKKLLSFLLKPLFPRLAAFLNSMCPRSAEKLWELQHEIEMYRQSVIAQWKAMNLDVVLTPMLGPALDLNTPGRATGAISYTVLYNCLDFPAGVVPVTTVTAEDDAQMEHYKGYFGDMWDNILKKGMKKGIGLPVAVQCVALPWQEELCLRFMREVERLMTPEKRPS

Work on `NC(=O)c1cccc(-c2cc(OC(=O)NC3CCCCC3)ccc2O)c1` [Compound 1b, cyclohexylcarbamic acid 3′-carbamoyl-6-hydroxybiphenyl-3-yl ester] yielded a recovery at 10 μM ([1]; Caco-2, TC7 monolayers, 10 μM compound, read-out: % recovery A-B) of 83%, a recovery at 10 μM ([1]; Caco-2, TC7 monolayers, 10 μM compound, read-out: % recovery B-A) of 95% and a recovery at 10 μM ([1]; Caco-2, with verapamil 100 μM, TC7 monolayers, verapamil (100 μM), read-out: % recovery B-A with verapamil) of 94%. It also gave a Papp A→B at 10 μM ([1]; Caco-2, TC7 monolayers, 10 μM compound, mean of 2 independent experiments, read-out: permeability A-B) of 3.8 ×10⁻⁶ cm/s, a Papp B→A at 10 μM ([1]; Caco-2, TC7 monolayers, 10 μM compound, mean of 2 independent experiments, read-out: permeability B-A) of 37.1 ×10⁻⁶ cm/s and a Papp B→A at 10 μM (Pgp) of 32.2 ×10⁻⁶ cm/s. The “area under the curve of formalin-induced pain behavior” value [2] was “decreased the area under the curve”, the inhibition at 1 mg/kg (FAAH [3]; Mice, 1 mg/Kg i.p., Colon, read-out: % of FAAH inhibition, Colon) was 84.7 ± 0.3% and the inhibition at 1 mg/kg (FAAH [3]; Mice, 1 mg/Kg i.p., Duodenum, read-out: % of FAAH inhibition, Duodenum) was 84.3 ± 1.4%. It also gave an inhibition at 1 mg/kg (FAAH [3]; Mice, 1 mg/Kg i.p., Hypothalamus, read-out: % of FAAH inhibition, Hypothalamus) of 18.4 ± 13.8%, an inhibition at 1 mg/kg (FAAH [3]; Mice, 1 mg/Kg i.p., Illeum, read-out: % of FAAH inhibition, Illeum) of 86.8 ± 2.4% and an inhibition at 1 mg/kg (FAAH [3]; Mice, 1 mg/Kg i.p., Jejunum, read-out: % of FAAH inhibition, Jejunum) of 90 ± 1.4%. It also gave an inhibition at 1 mg/kg (FAAH [3]; Mice, 1 mg/Kg i.p., Kidney, read-out: % of FAAH inhibition, Kidney) of 88.3 ± 1%, an inhibition at 1 mg/kg (FAAH [3]; Mice, 1 mg/Kg i.p., Liver, read-out: % of FAAH inhibition, Liver) of 91.7 ± 0.7% and an inhibition at 1 mg/kg (FAAH [3]; Mice, 1 mg/Kg i.p., Spinal cord, read-out: % of FAAH inhibition, Spinal cord) of 17.7 ± 10.6%. The inhibition at 1 mg/kg (FAAH [3]; Mice, 1 mg/Kg i.p., Spleen, read-out: % of FAAH inhibition, Spleen) was 72.5 ± 0.7%, the inhibition at 1 mg/kg (FAAH [3]; ex vivo 1 h after a single injection in mice (1 mg-kg^-1, i.p.), brain, read-out: FAAH Inhibition in brain (%)) was -3 ± 8% and the “nocifensive behavior when administered alone” value ([4]; mice, 1 mg-kg^-1, without acetic acid) was “no detectable nocifensive behavior”. For the same compound, the “acetic acid-induced writhing ED50” value ([4]; mice, subcutaneous administration, 1 h before acetic acid) was 0.1 mg/kg, the “reduction of acetic acid-induced writhing in FAAH-deficient mice” value ([4]; mutant FAAH-deficient mice, 1 mg-kg^-1) was “absent” and the anandamide levels (FAAH [5]) was “increased anandamide levels in the periphery, not in forebrain or hypothalamus”. The “tissue levels of 2-AG in vivo” value (FAAH [5]) was “did not alter”, the “access of URB937 to the brain with Ko-143” value ([6]; co-administration of BCRP inhibitor Ko-143) was “dose-dependent increase” and the “access of URB937 to the brain with verapamil or probenecid” value ([6]; co-administration of verapamil or probenecid) was “no such effect”. For the same compound, the logD [7] was 3.03 ± 0.01.
